# Source: ChEMBL document CHEMBL1127098, “Anticonvulsant activity of glycine-site NMDA antagonists. 1. 2-carboxyl prodrugs of 5,7-dichlorokynurenic acid” (Bioorg Med Chem Lett, 1993)
# Tests used:
# Mus musculus [1] = assay: Tested for anticonvulsant activity by the antagonism of audiogenic seizures in DBA/2 mice and number of mice protected from tonic seizure/number of mice tested at 250 mg/kg dose after 60 mins was reported (7 out of 8); format: functional
# Mus musculus [2] = assay: Tested for anticonvulsant activity by the antagonism of audiogenic seizures in DBA/2 mice and number of mice protected from tonic seizure/number of mice tested at 250 mg/kg dose after 15 mins was reported (8 out of 8); format: functional
# Mus musculus [3] = assay: Tested for anticonvulsant activity by the antagonism of audiogenic seizures in DBA/2 mice and number of mice protected from tonic seizure/number of mice tested at 250 mg/kg dose after 30 mins was reported (8 out of 8); format: functional
# Mus musculus [4] = organism: Mus musculus; assay: Tested for the anticonvulsant activity by the antagonism of the audiogenic seizures in DBA/2 mice after 30 minutes; format: functional; details: 0.5 h
# Mus musculus [5] = assay: Tested for the effective dose required for anticonvulsant activity when given intraperitoneally after 15 minutes in DBA/2 mice; format: functional; details: ip, 0.25 h
# Mus musculus [6] = assay: Tested for anticonvulsant activity by the antagonism of audiogenic seizures in DBA/2 mice and number of mice protected from tonic seizure/number of mice tested at 250 mg/kg dose after 120 mins was reported (2 out of 8); format: functional
# Mus musculus [7] = assay: Tested for anticonvulsant activity by the antagonism of audiogenic seizures in DBA/2 mice and number of mice protected from tonic seizure/number of mice tested at 250 mg/kg dose after 60 mins was reported (2 out of 8); format: functional
# Mus musculus [8] = assay: Tested for anticonvulsant activity by the antagonism of audiogenic seizures in DBA/2 mice and number of mice protected from tonic seizure/number of mice tested at 250 mg/kg dose after 15 mins was reported (5 out of 7); format: functional
# Mus musculus [9] = assay: Tested for anticonvulsant activity by the antagonism of audiogenic seizures in DBA/2 mice and number of mice protected from tonic seizure/number of mice tested at 250 mg/kg dose after 30 mins was reported (7 out of 8); format: functional
# Mus musculus [10] = assay: Tested for anticonvulsant activity by the antagonism of audiogenic seizures in DBA/2 mice and number of mice protected from tonic seizure/number of mice tested at 250 mg/kg dose after 120 mins was reported (3 out of 7); format: functional
# Mus musculus [11] = assay: Tested for anticonvulsant activity by the antagonism of audiogenic seizures in DBA/2 mice and number of mice protected from tonic seizure/number of mice tested at 250 mg/kg dose after 15 mins was reported (0 out of 8); format: functional
# Mus musculus [12] = assay: Tested for anticonvulsant activity by the antagonism of audiogenic seizures in DBA/2 mice and number of mice protected from tonic seizure/number of mice tested at 250 mg/kg dose after 30 mins was reported (1 out of 8); format: functional
# Mus musculus [13] = assay: Tested for anticonvulsant activity by the antagonism of audiogenic seizures in DBA/2 mice and number of mice protected from tonic seizure/number of mice tested at 250 mg/kg dose after 120 mins was reported (3 out of 9); format: functional
# Mus musculus [14] = assay: Tested for anticonvulsant activity by the antagonism of audiogenic seizures in DBA/2 mice and number of mice protected from tonic seizure/number of mice tested at 250 mg/kg dose after 60 mins was reported (3 out of 8); format: functional
# Mus musculus [15] = assay: Tested for the effective dose required for anticonvulsant activity when given intraperitoneally after 30 minutes in DBA/2 mice; format: functional; details: ip, 0.5 h
# Mus musculus [16] = assay: Tested for anticonvulsant activity by the antagonism of audiogenic seizures in DBA/2 mice and number of mice protected from tonic seizure/number of mice tested at 250 mg/kg dose after 60 mins was reported (4 out of 8); format: functional
# Mus musculus [17] = assay: Tested for anticonvulsant activity by the antagonism of audiogenic seizures in DBA/2 mice and number of mice protected from tonic seizure/number of mice tested at 250 mg/kg dose after 120 mins was reported (1 out of 8); format: functional
# Mus musculus [18] = assay: Tested for anticonvulsant activity by the antagonism of audiogenic seizures in DBA/2 mice and number of mice protected from tonic seizure/number of mice tested at 250 mg/kg dose after 30 mins was reported (5 out of 8); format: functional
# Mus musculus [19] = assay: Tested for anticonvulsant activity by the antagonism of audiogenic seizures in DBA/2 mice and number of mice protected from tonic seizure/number of mice tested at 250 mg/kg dose after 15 mins was reported (1 out of 8); format: functional
# Mus musculus [20] = assay: Tested for anticonvulsant activity by the antagonism of audiogenic seizures in DBA/2 mice and number of mice protected from tonic seizure/number of mice tested at 250 mg/kg dose after 60 mins was reported (1 out of 6); format: functional
# Mus musculus [21] = assay: Tested for anticonvulsant activity by the antagonism of audiogenic seizures in DBA/2 mice and number of mice protected from tonic seizure/number of mice tested at 250 mg/kg dose after 120 mins was reported (0 out of 6); format: functional
# Mus musculus [22] = assay: Tested for anticonvulsant activity by the antagonism of audiogenic seizures in DBA/2 mice and number of mice protected from tonic seizure/number of mice tested at 250 mg/kg dose after 15 mins was reported (4 out of 8); format: functional
# Mus musculus [23] = assay: Tested for anticonvulsant activity by the antagonism of audiogenic seizures in DBA/2 mice and number of mice protected from tonic seizure/number of mice tested at 250 mg/kg dose after 30 mins was reported (1 out of 6); format: functional
# Mus musculus [24] = assay: Tested for anticonvulsant activity by the antagonism of audiogenic seizures in DBA/2 mice and number of mice protected from tonic seizure/number of mice tested at 250 mg/kg dose after 30 mins was reported (0 out of 8); format: functional
# Mus musculus [25] = assay: Tested for anticonvulsant activity by the antagonism of audiogenic seizures in DBA/2 mice and number of mice protected from tonic seizure/number of mice tested at 250 mg/kg dose after 120 mins was reported (0 out of 8); format: functional
# Mus musculus [26] = assay: Tested for anticonvulsant activity by the antagonism of audiogenic seizures in DBA/2 mice and number of mice protected from tonic seizure/number of mice tested at 250 mg/kg dose after 60 mins was reported (5 out of 8); format: functional
# Mus musculus [27] = assay: Tested for anticonvulsant activity by the antagonism of audiogenic seizures in DBA/2 mice and number of mice protected from tonic seizure/number of mice tested at 250 mg/kg dose after 60 mins was reported (5 out of 7); format: functional
# [28] = Half-life at pH 7.4; format: ADME; details: buffer
# Mus musculus [29] = assay: Tested for anticonvulsant activity by the antagonism of audiogenic seizures in DBA/2 mice and number of mice protected from tonic seizure/number of mice tested at 250 mg/kg dose after 60 mins was reported (1 out of 7); format: functional
# Mus musculus [30] = assay: Tested for anticonvulsant activity by the antagonism of audiogenic seizures in DBA/2 mice and number of mice protected from tonic seizure/number of mice tested at 250 mg/kg dose after 120 mins was reported (1 out of 7); format: functional
# Mus musculus [31] = assay: Tested for anticonvulsant activity by the antagonism of audiogenic seizures in DBA/2 mice and number of mice protected from tonic seizure/number of mice tested at 250 mg/kg dose after 15 mins was reported (7 out of 7); format: functional
# Mus musculus [32] = assay: Tested for anticonvulsant activity by the antagonism of audiogenic seizures in DBA/2 mice and number of mice protected from tonic seizure/number of mice tested at 250 mg/kg dose after 30 mins was reported (7 out of 7); format: functional
# Mus musculus [33] = assay: Tested for the effective dose required for anticonvulsant activity when given intraperitoneally; format: functional; details: ip
structure (smiles),measurement,setting,value
CC(CN(C)C)OC(=O)c1cc(O)c2c(Cl)cc(Cl)cc2n1 (stereo unspecified),No. of mouse protected,Mus musculus [1],7
same,No. of mouse protected,Mus musculus [2],8
same,No. of mouse protected,Mus musculus [3],8
same,ED50,Mus musculus [4],138 mg/kg
same,ED50,Mus musculus [5],62 mg/kg
same,No. of mouse protected,Mus musculus [6],2
CN(C)CCCOC(=O)c1cc(O)c2c(Cl)cc(Cl)cc2n1,No. of mouse protected,Mus musculus [7],2
same,No. of mouse protected,Mus musculus [8],5
same,No. of mouse protected,Mus musculus [9],7
same,No. of mouse protected,Mus musculus [10],3
O=C(OCCN1CCOCC1)c1cc(O)c2c(Cl)cc(Cl)cc2n1,No. of mouse protected,Mus musculus [11],0
same,No. of mouse protected,Mus musculus [12],1
same,No. of mouse protected,Mus musculus [13],3
same,No. of mouse protected,Mus musculus [14],3
CN(C)CCNC(=O)c1cc(O)c2c(Cl)cc(Cl)cc2n1,ED50,Mus musculus [15],303 mg/kg
same,No. of mouse protected,Mus musculus [16],4
same,No. of mouse protected,Mus musculus [17],1
same,No. of mouse protected,Mus musculus [18],5
same,No. of mouse protected,Mus musculus [19],1
C[N+](C)(C)CCNC(=O)c1cc(O)c2c(Cl)cc(Cl)cc2n1.[I-],No. of mouse protected,Mus musculus [20],1
same,No. of mouse protected,Mus musculus [21],0
same,No. of mouse protected,Mus musculus [22],4
same,No. of mouse protected,Mus musculus [23],1
O=C(NCCN1CCOCC1)c1cc(O)c2c(Cl)cc(Cl)cc2n1,No. of mouse protected,Mus musculus [7],2
same,No. of mouse protected,Mus musculus [19],1
same,No. of mouse protected,Mus musculus [24],0
same,No. of mouse protected,Mus musculus [25],0
O=C(OCCN1CCCC1)c1cc(O)c2c(Cl)cc(Cl)cc2n1,No. of mouse protected,Mus musculus [26],5
same,No. of mouse protected,Mus musculus [9],7
same,No. of mouse protected,Mus musculus [2],8
same,No. of mouse protected,Mus musculus [25],0
same,ED50,Mus musculus [5],128 mg/kg
CCN(CC)CCOC(=O)c1cc(O)c2c(Cl)cc(Cl)cc2n1,ED50,Mus musculus [15],171 mg/kg
same,No. of mouse protected,Mus musculus [27],5
same,half-life,[28],22 min
same,No. of mouse protected,Mus musculus [17],1
same,No. of mouse protected,Mus musculus [2],8
same,No. of mouse protected,Mus musculus [3],8
same,ED50,Mus musculus [5],98 mg/kg
CC(C)N(CCOC(=O)c1cc(O)c2c(Cl)cc(Cl)cc2n1)C(C)C,No. of mouse protected,Mus musculus [29],1
same,No. of mouse protected,Mus musculus [30],1
same,No. of mouse protected,Mus musculus [31],7
same,No. of mouse protected,Mus musculus [32],7
same,ED50,Mus musculus [5],152 mg/kg
O=C(O)c1cc(O)c2c(Cl)cc(Cl)cc2n1,No. of mouse protected,Mus musculus [24],0
same,ED50,Mus musculus [33],250 mg/kg
